Test: xn = mol fraction of the nth substance listed

CCCC[n+]1ccn(C)c1.F[B-](F)(F)F + CC(C)=O
Conditions	electrical conductivity [S/m]	viscosity [mPa·s]
296.15 K, 101 kPa, x2 = 0	0.35	–
296.15 K, 101 kPa, x2 = 0.3019	2.03	–
296.15 K, 101 kPa, x2 = 0.6252	2.89	–
296.15 K, 101 kPa, x2 = 0.7956	3.5	–
296.15 K, 101 kPa, x2 = 0.8537	3.61	–
296.15 K, 101 kPa, x2 = 0.9008	3.71	–
296.15 K, 101 kPa, x2 = 0.9396	2.92	–
296.15 K, 101 kPa, x2 = 0.9722	1.66	–
298.15 K, 101 kPa, x2 = 0	0.194	116
298.15 K, 101 kPa, x2 = 0.0973	0.311	78
298.15 K, 101 kPa, x2 = 0.1863	0.44	53.3
298.15 K, 101 kPa, x2 = 0.2878	0.623	34.2
298.15 K, 101 kPa, x2 = 0.3877	0.87	21.4
298.15 K, 101 kPa, x2 = 0.4853	1.18	12.9
298.15 K, 101 kPa, x2 = 0.5858	1.61	7.39
298.15 K, 101 kPa, x2 = 0.6762	1.98	4.24
298.15 K, 101 kPa, x2 = 0.8151	2.2	1.61
303.15 K, 100 kPa, x1 = 0.0999	–	0.726
303.15 K, 100 kPa, x1 = 0.2	–	1.48
303.15 K, 100 kPa, x1 = 0.3002	–	2.789
303.15 K, 100 kPa, x1 = 0.4003	–	4.968
303.15 K, 100 kPa, x1 = 0.4996	–	8.387
303.15 K, 100 kPa, x1 = 0.6008	–	14.14
303.15 K, 100 kPa, x1 = 0.7006	–	22.8
303.15 K, 100 kPa, x1 = 0.7995	–	35.07
303.15 K, 100 kPa, x1 = 0.9	–	54.72
303.15 K, 100 kPa, x1 = 1	–	85.4
313.15 K, 100 kPa, x1 = 0.0999	–	0.654
313.15 K, 100 kPa, x1 = 0.2	–	1.3
313.15 K, 100 kPa, x1 = 0.3002	–	2.394
313.15 K, 100 kPa, x1 = 0.4003	–	4.185
313.15 K, 100 kPa, x1 = 0.4996	–	6.706
313.15 K, 100 kPa, x1 = 0.6008	–	10.83
313.15 K, 100 kPa, x1 = 0.7006	–	16.72
313.15 K, 100 kPa, x1 = 0.7995	–	24.44
313.15 K, 100 kPa, x1 = 0.9	–	36.14
313.15 K, 100 kPa, x1 = 1	–	53.84
323.15 K, 100 kPa, x1 = 0.0999	–	0.595
323.15 K, 100 kPa, x1 = 0.2	–	1.171
323.15 K, 100 kPa, x1 = 0.3002	–	2.094
323.15 K, 100 kPa, x1 = 0.4003	–	3.567
323.15 K, 100 kPa, x1 = 0.4996	–	5.516
323.15 K, 100 kPa, x1 = 0.6008	–	8.67
323.15 K, 100 kPa, x1 = 0.7006	–	12.67
323.15 K, 100 kPa, x1 = 0.7995	–	17.99
323.15 K, 100 kPa, x1 = 0.9	–	25.35
323.15 K, 100 kPa, x1 = 1	–	36.27

CCCC[n+]1ccn(C)c1.F[B-](F)(F)F + CC(C)C[C@H](N)C(=O)O + O
viscosity [mPa·s], 100 kPa
Conditions	293.15 K	298.15 K	303.15 K	308.15 K	313.15 K	318.15 K
x2 = 0, x1 = 0.0003729	1.03	0.917	0.835	0.751	0.693	0.638
x2 = 0, x1 = 0.0007257	1.062	0.951	0.868	0.789	0.736	0.681
x2 = 0, x1 = 0.0011	1.093	0.983	0.904	0.83	0.779	0.725

Source: the CheMixHub ionic liquid set
